A word on the pIC50: it is −log10 of the IC50, conventionally taken in molar units.

Experiment [1] addresses T1, human ENT1 (Homo sapiens, UniProt Q99808).
T1 construct: JAR cells expressing ENT1 were purchased from ATCC; host or cells: JAR cells
T1 sequence (Q99808 1-456): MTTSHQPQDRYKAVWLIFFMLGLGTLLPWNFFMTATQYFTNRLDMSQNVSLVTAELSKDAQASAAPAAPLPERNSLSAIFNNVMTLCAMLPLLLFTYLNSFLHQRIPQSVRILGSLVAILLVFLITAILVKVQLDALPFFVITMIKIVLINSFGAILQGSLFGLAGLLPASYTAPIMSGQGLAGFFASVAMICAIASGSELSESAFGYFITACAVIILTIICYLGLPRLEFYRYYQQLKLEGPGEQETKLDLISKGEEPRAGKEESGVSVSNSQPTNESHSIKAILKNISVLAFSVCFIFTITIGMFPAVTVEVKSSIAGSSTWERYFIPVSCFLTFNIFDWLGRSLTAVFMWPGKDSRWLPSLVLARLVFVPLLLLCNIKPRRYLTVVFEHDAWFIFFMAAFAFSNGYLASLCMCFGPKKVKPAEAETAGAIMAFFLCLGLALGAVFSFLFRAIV
In words: ENT1 binding assay (competition with Sahenta-DY647 on JAR cells). As to conditions: competition with SAHENTA-DY647 binding; IC50 categorized; read-out: Binding Assay IC50. The essentials:
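Whole-cell competition on JAR cells (native ENT1): 50,000 cells pre-incubated 30 min at 4 °C with compound in HBSS/10 mM Hepes/0.1% BSA, then 100 nM Sahenta-DY647 added for 30 min at 4 °C. After washing, fluorescence (Ex 630/Em 670 nm) read; IC50 from sigmoidal fit, averaged as pIC50.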

Experiment [2] addresses T1, human ENT1. In words: Uridine transport inhibition assay, ENT1-mediated uptake in MDCKII cells. It counts as cell-based. As to conditions: MDCKIIENT1-LV cells, probe uridine 1 μM, pre-incubation 30 min, incubation 1 min. Here is the method:
(§1) The goal of this study was to determine the potency and selectivity of ENT1 inhibitors by measuring ENT1 and ENT2-mediated transport using an in vitro cellular uptake assay.
(§2) Human ENT1 and ENT2 transporters were stably expressed in Madin-Darby Canine Kidney II (MDCKII) cells via transduction. Cell lines overexpressing the relevant ENT1 or ENT2 molecules were preincubated with a dose range of the relevant compound for 30 minutes before introduction of the specific substrate at the concentration indicated in the Table assay parameters below. The transporter assay was conducted for the time specified in the Table assay parameters before the specific uptake of the substrate into the cells was quantified. Specific uptake was determined by comparing the uptake from the cells treated with the relevant compounds and the uptake by cells not overexpressing the transporter in question.
(§3) Specific uptake for each concentration of the test sample was normalized to the DMSO control value to generate a relative accumulation value (or relative transporter activity). Data were plotted against the log molar concentration of the test reagent used. IC50 values were generated with Prism version 9.4.1 and the following function: log(inhibitor) vs. response—Variable slope (four parameters).

The target in another experiment is T2, Human ENT2 (Homo sapiens, UniProt Q14542).
T2 construct: expressed in transfected cells
T2 sequence (Q14542 1-456): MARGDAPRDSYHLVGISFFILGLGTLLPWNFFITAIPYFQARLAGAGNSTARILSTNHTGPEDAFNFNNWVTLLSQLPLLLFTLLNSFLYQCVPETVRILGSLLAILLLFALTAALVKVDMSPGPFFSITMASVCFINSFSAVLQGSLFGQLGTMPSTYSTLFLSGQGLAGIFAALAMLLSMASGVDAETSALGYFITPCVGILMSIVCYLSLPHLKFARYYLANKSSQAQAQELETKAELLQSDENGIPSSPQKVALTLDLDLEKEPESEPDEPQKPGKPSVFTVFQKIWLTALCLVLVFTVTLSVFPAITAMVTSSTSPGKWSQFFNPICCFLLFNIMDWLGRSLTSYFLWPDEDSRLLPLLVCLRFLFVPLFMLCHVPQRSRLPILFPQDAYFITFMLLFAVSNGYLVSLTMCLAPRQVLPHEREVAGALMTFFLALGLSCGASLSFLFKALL
Kind of experiment: Adenosine uptake assay, ENT2-mediated transport in MDCKII cells. It counts as cell-based. As to conditions: MDCKIIENT2-LV cells, probe adenosine 0.5 μM, pre-incubation 30 min, incubation 10 min. How it is done:
as §1, §2, §3

pIC50: −log10 of the molar value.

As to `C[C@H]1O[C@@H](n2c(NC3CCCC3)nc3c(OCc4ccc([N+](=O)[O-])cc4)ncnc32)[C@H](O)[C@@H]1O` [Compound 6], the negative logarithm of the IC50 (pIC50) was above 9.00 on human ENT1 [1], 8.70 to 10.00 against human ENT1 [2] and 6.00 to 7.70 against Human ENT2.
Regarding `C[C@H]1O[C@@H](n2c(NC3CCC(O)CC3)nc3c(OCc4ccc([N+](=O)[O-])cc4)ncnc32)[C@H](O)[C@@H]1O` (stereo partly drawn) [Compound 28], the figures for the pIC50 at human ENT1 [1], against human ENT1 [2] and against Human ENT2 were above 9.00, 8.70 to 10.00 and below 6.00, respectively.
With `C[C@H]1O[C@@H](n2c(NC3CCOCC3)nc3c(OCc4ccc(C#N)cc4)ncnc32)[C@H](O)[C@@H]1O` [Compound 73], the negative-log IC50 (pIC50) at human ENT1 [1] is above 9.00; at human ENT1 [2] it was 8.70 to 10.00; against Human ENT2, 6.00 to 7.70.
The matching figures for `C[C@H]1O[C@@H](n2c(NC3CCOCC3)nc3c(OCc4ccc(OC(F)F)nc4)ncnc32)[C@H](O)[C@@H]1O` [Compound 75]: above 9.00, 8.70 to 10.00 and 6.00 to 7.70.
For the compound `C[C@H]1O[C@@H](n2c(N[C@H]3CCC(F)(F)C3)nc3c(OCc4ccc(C#N)cc4)ncnc32)[C@H](O)[C@@H]1O` [Compound 82], the pIC50 on human ENT1 [1] was 7.70 to 9.00; at human ENT1 [2], 8.70 to 10.00; on Human ENT2, 6.00 to 7.70.
On the same counts, the results for `C[C@H]1O[C@@H](n2cnc3c(SCc4ccc([N+](=O)[O-])cc4)ncnc32)[C@H](O)[C@@H]1O` [Compound 147] are 7.70 to 9.00, above 10.00 and below 6.00.
On the same counts, the results for `C[C@H]1O[C@@H](n2cnc3c(N4CCc5ccc([N+](=O)[O-])cc5C4)ncnc32)[C@H](O)[C@@H]1O` [Compound 151] are 7.70 to 9.00, 8.70 to 10.00 and below 6.00.
The matching figures for `C[C@H]1O[C@@H](n2cnc3c(OCc4ccc([N+](=O)[O-])cc4)ncnc32)[C@H](O)[C@@H]1O` [Compound 166]: 6.30 to 7.70, 8.70 to 10.00 and below 6.00.
With `C[C@H]1O[C@@H](n2cnc3c(OCc4ccc(OC(F)F)cc4)ncnc32)[C@H](O)[C@@H]1O` [Compound 173], the pIC50 is 6.30 to 7.70 at human ENT1 [1], 8.70 to 10.00 at human ENT1 [2] and below 6.00 against Human ENT2.
On the same counts, the results for `OCCOC[C@H]1O[C@@H](n2cnc3c(OCc4ccc(OC(F)(F)F)cc4)ncnc32)[C@H](O)[C@@H]1O` [Compound 175] are 6.30 to 7.70, 8.70 to 10.00 and below 6.00.

The values above are taken from patent publication US20260184712A1, “Heterocyclic Compounds as ENT Inhibitors and Compounds for Use in the Treatment of Cancers” (iTeos Belgium SA, priority 2022, published 2026).
